Calls of active or inactive are those of the source. The calls are words filed in the database; no cut-off is given here.
Tests used:
[1] = Half life in CD-1 mouse at 5 mg/kg, iv measured for 0.05 to 24 hrs by UPLC analysis; assay type: ADME, organism-based; settings: in vivo, time 0.05-24 hrs
[2] = tested on: Escherichia coli; assay: Antibacterial activity against Escherichia coli AB1157 incubated for 16 to 24 hrs by broth microdilution assay; assay type: functional; settings: time 16-24 hrs
[3] = tested on: Enterococcus faecium; assay: Antibacterial activity against vancomycin-resistant Enterococcus faecium Efm-HS-0649 harboring VanA phenotype incubated for 16 to 24 hrs by broth microdilution assay; assay type: functional; settings: time 16-24 hrs
[4] = tested on: Acinetobacter baumannii; assay: Antibacterial activity against Acinetobacter baumannii ATCC19606 incubated for 16 to 24 hrs by broth microdilution assay; assay type: functional; settings: time 16-24 hrs
[5] = AUC (infinity) in CD-1 mouse at 5 mg/kg, iv measured for 0.05 to 24 hrs by UPLC analysis; assay type: ADME, organism-based; settings: in vivo, time 0.05-24 hrs
[6] = tested on: Enterococcus faecium; assay: Antibacterial activity against vancomycin-resistant Enterococcus faecium SC-2022-D2-059 harboring VanA phenotype infected in ICR mouse assessed as animal survival rate at 5 mg/kg, iv measured for 7 days relative to control; assay type: functional; settings: SC-2022-D2-059, 168 h, time 7 day
[7] = AUClast in CD-1 mouse at 5 mg/kg, iv measured for 0.05 to 24 hrs by UPLC analysis; assay type: ADME, organism-based; settings: in vivo, time 0.05-24 hrs
[8] = tested on: Enterococcus faecium; assay: Antibacterial activity against vancomycin-resistant Enterococcus faecium Efm-HS-08257 harboring VanM phenotype incubated for 16 to 24 hrs by broth microdilution assay; assay type: functional; settings: time 16-24 hrs
[9] = tested on: Bacteria; assay: Antibacterial activity against Gram-positive bacteria incubated for 16 to 24 hrs by broth microdilution assay; assay type: functional; settings: time 16-24 hrs
[10] = tested on: Staphylococcus aureus; assay: Dissipation of membrane potential in methicillin-resistant Staphylococcus aureus USA300 LAC at 1.3 to 170 ug/ml by DiSC3(5) dye based analysis; assay type: functional, organism-based; settings: dose 1.3-170 µg/ml
[11] = tested on: Acinetobacter baumannii; assay: Antibacterial activity against carbapenem-resistant Acinetobacter baumannii CRAB-1 clinical isolate incubated for 16 to 24 hrs by broth microdilution assay; assay type: functional; settings: time 16-24 hrs
[12] = Clearance in CD-1 mouse at 5 mg/kg, iv measured for 0.05 to 24 hrs by UPLC analysis; assay type: ADME, organism-based; settings: in vivo, time 0.05-24 hrs
[13] = MRT (infinity) in CD-1 mouse at 5 mg/kg, iv measured for 0.05 to 24 hrs by UPLC analysis; assay type: ADME, organism-based; settings: in vivo, time 0.05-24 hrs
[14] = tested on: Pseudomonas aeruginosa; assay: Antibacterial activity against Pseudomonas aeruginosa PAO1 incubated for 16 to 24 hrs by broth microdilution assay; assay type: functional; settings: time 16-24 hrs
[15] = Volume of distribution at steady state in CD-1 mouse at 5 mg/kg, iv measured for 0.05 to 24 hrs by UPLC analysis; assay type: ADME, organism-based; settings: in vivo, time 0.05-24 hrs, read-out: Vdss
[16] = tested on: Enterococcus faecium; assay: Antibacterial activity against vancomycin-resistant Enterococcus faecium Efm-HS-vb01 harboring VanB phenotype incubated for 16 to 24 hrs by broth microdilution assay; assay type: functional; settings: time 16-24 hrs
[17] = tested on: Staphylococcus aureus; assay: Antibacterial activity against methicillin-resistant Staphylococcus aureus USA300 LAC incubated for 16 to 24 hrs by broth microdilution assay; assay type: functional; settings: time 16-24 hrs
[18] = tested on: Enterococcus faecium; assay: Antibacterial activity against vancomycin-resistant Enterococcus faecium Efm-HS-vb02 harboring VanB phenotype incubated for 16 to 24 hrs by broth microdilution assay; assay type: functional; settings: time 16-24 hrs
[19] = Drug concentration in CD-1 mouse at 5 mg/kg, iv measured after 8 hrs; assay type: ADME, organism-based; settings: in vivo, read-out: Drug uptake
[20] = tested on: Enterococcus faecium; assay: Antibacterial activity against vancomycin-resistant Enterococcus faecium SC-2022-D2-059 harboring VanA phenotype incubated for 16 to 24 hrs by broth microdilution assay; assay type: functional; settings: time 16-24 hrs
[21] = tested on: Staphylococcus aureus; assay: Induction of membrane permeability in methicillin-resistant Staphylococcus aureus USA300 LAC by fluorescence based analysis; assay type: functional, organism-based; settings: dose 2.67-170 µg/ml
[22] = tested on: Staphylococcus aureus; assay: Inhibition of peptidoglycan biosynthesis in methicillin-resistant Staphylococcus aureus USA300 LAC assessed as fold increase in accumulation of Park's nucleotide at 5 ug/ml incubated for 2 hrs by RP-HPLC analysis; assay type: functional; settings: dose 5 µg/ml
[23] = Acute toxicity in mouse assessed as animal suvival at 40 mg/kg, iv measured for 7 days; assay type: organism-based; settings: in vivo, 168 h, time 7 day
[24] = tested on: Staphylococcus aureus; assay: Antibacterial activity against methicillin-resistant Staphylococcus aureus USA300 LAC infected in female BALB/c mouse assessed as animal survival rate at 7 mg/kg, iv measured for 7 days consecutively relative to control; assay type: functional; settings: 168 h, time 7 day
[25] = Cytotoxicity against HK-2 cells assessed as cell viability at 50 mg/L incubated for 72 hrs by CCK8 assay relative to control; assay type: toxicity, cell-based; settings: human, at 50 µg/mL, read-out: Activity
[26] = tested on: Klebsiella pneumoniae; assay: Antibacterial activity against Klebsiella pneumoniae KP-1 incubated for 16 to 24 hrs by broth microdilution assay; assay type: functional; settings: time 16-24 hrs
[27] = Cytotoxicity against mouse AML12 cells assessed as cell viability at 50 mg/L incubated for 72 hrs by CCK8 assay relative to control; assay type: toxicity, cell-based; settings: at 50 µg/mL, read-out: Activity
[28] = tested on: Acinetobacter baumannii; assay: Induction of outer membrane permeability in carbapenem-resistant Acinetobacter baumannii CRAB-1 clinical isolate by NPN dye based analysis; assay type: functional, organism-based; settings: dose 1.33-170 µg/ml
[29] = tested on: Staphylococcus aureus; assay: Antibacterial activity against vancomycin-intermediate Staphylococcus aureus Mu50 incubated for 16 to 24 hrs by broth microdilution assay; assay type: functional; settings: time 16-24 hrs
[30] = tested on: Enterococcus faecium; assay: Antibacterial activity against vancomycin-resistant Enterococcus faecium SC-2022-D2-059 harboring VanA phenotype infected in ICR mouse assessed as animal survival rate at 10 to 20 mg/kg, iv measured for 7 days relative to control; assay type: functional; settings: dose 10-20 mg/kg, time 7 day
[31] = Hemolytic activity against rat erythrocytes at 100 ug/ml incubated for 1 hr by absorbance based assay; assay type: toxicity, cell-based, Erythrocyte; settings: erythrocyte, 1 h, dose 100 µg/ml

Compound `CN[C@H](CC(C)C)C(=O)N[C@H]1C(=O)N[C@@H](CC(N)=O)C(=O)N[C@H]2C(=O)N[C@H]3C(=O)N[C@H](C(=O)N[C@H](C(=O)O)c4cc(O)c(CNCCC[S+](C)CC(O)COc5ccc(-c6ccc(C(F)(F)F)cc6)cc5)c(O)c4-c4cc3ccc4O)[C@H](O)c3ccc(c(Cl)c3)Oc3cc2cc(c3O[C@@H]2O[C@H](CO)[C@@H](O)[C@H](O)[C@H]2O[C@H]2C[C@](C)(N)[C@H](O)[C@H](C)O2)Oc2ccc(cc2Cl)[C@H]1O.O=C([O-])C(F)(F)F` (stereo partly specified) has a half-life [1] of 3.57 h, an MIC [2] of 8 µg/mL and an MIC [3] of 0.5 µg/mL. It also gave an MIC [4] of 16 µg/mL, an AUC(0-inf) [5] of 42000 ng·h/mL and a survival at 5 mg/kg [6] of 50%. The AUC(0-t) [7] was 41600 ng·h/mL, the MIC [8] was 2 µg/mL and the MIC [9] was at most 0.063 µg/mL. The Activity [10] was “Active”, the MIC [11] was 32 µg/mL and the clearance [12] was 2.28 mL/min/kg. The MRT inf [13] was 3.98 h, the MIC [14] was over 128 µg/mL and the Vd [15] was 0.566 L/kg. It also gave an MIC [16] of at most 0.063 µg/mL, an MIC [17] of 0.031 µg/mL and an MIC [18] of at most 0.063 µg/mL. For the same compound, the concentration at 8 h [19] was about 700 ng/mL, the MIC [20] was 0.12 µg/mL and the Activity [21] was “Dose-dependent-effect”. For the same compound, the “fold change (FC)” value [22] was “<=3”, the Activity [23] was “Non-toxic” and the survival at 7 mg/kg [24] was 100%. The viability at 72 h, 50 mg/L [25] was about 100%, the MIC [26] was 128 µg/mL and the viability at 72 h, 50 mg/L [27] was about 100%. For the same compound, the Activity [28] was “Active”, the MIC [29] was 0.125 µg/mL and the Survival [30] was 100%. For the same compound, the Activity [31] was “Toxic”.

— ChEMBL document CHEMBL6134868, “Novel Aryl Sulfonium Modification on Vancomycin to Tackle MRSA and VRE In Vitro and In Vivo through Dual Enhanced Cell-Wall and Membrane Inhibition” (J Med Chem, 2025)
